Values quoted from earlier work as cited in PubChem BioAssay AID1259409 (Chemical Carcinogenesis Research Information System (CCRIS), 2018).
Values joined by “and” are separate entries in the source; they are usually repeats but may differ in a detail not shown here. Equal entries are not always repeated.

System: rodent chemically induced tumor inhibition, incidence and multiplicity
Assay: CCRIS tumor inhibitor studies
Conditions: Promoter: NONE USED

CC1=C(/C=C/C(C)=C/C=C/C(C)=C/C=C/C=C(C)/C=C/C=C(C)/C=C/C2=C(C)CCCC2(C)C)C(C)(C)CCC1
outcome (Carcinogen: N-METHYL-N'-NITRO-N-NITROSOGUANIDINE, 70-25-7, Dose [Inhibitor]: 0, 0.4% IN DIET FOR 2 WK PRIOR TO FIRST CARCINOGEN DOSE FOLLOWED BY 0, 0.2% IN DIET FOR 52 WK (STUDY DURATION: 54 WK), Dose [Inhibitor]: 0, 0.4% IN DIET FOR 2 WK PRIOR TO FIRST CARCINOGEN DOSE FOLLOWED BY 0, 0.2% IN DIET FOR 52 WK (STUDY DURATION: 54 WK), Route [Inhibitor]: ORAL, Species: RAT, Strain/Sex: WISTAR/MALE, Target Tissue: Type of Lesion: SMALL INTESTINE: FIBROSARCOMA, Dose [Carcinogen]: 80 UG/ML IN DRINKING WATER FOR 52 WK): 0/36 (0%), 1/35 (3%), -300%, not calculated
tumour outcome (control, treated, inhibition, significance) (Carcinogen: N-METHYL-N'-NITRO-N-NITROSOGUANIDINE, 70-25-7, Dose [Inhibitor]: 0, 0.4% IN DIET FOR 2 WK PRIOR TO FIRST CARCINOGEN DOSE FOLLOWED BY 0, 0.2% IN DIET FOR 52 WK (STUDY DURATION: 54 WK), Dose [Inhibitor]: 0, 0.4% IN DIET FOR 2 WK PRIOR TO FIRST CARCINOGEN DOSE FOLLOWED BY 0, 0.2% IN DIET FOR 52 WK (STUDY DURATION: 54 WK), Route [Inhibitor]: ORAL, Species: RAT, Strain/Sex: WISTAR/MALE, Target Tissue: Type of Lesion: SMALL INTESTINE: LEIOMYOMA, Dose [Carcinogen]: 80 UG/ML IN DRINKING WATER FOR 52 WK): 1/36 (3%), 0/35 (0%), 100%, not calculated
tumour outcome (control, treated, inhibition, significance) (Carcinogen: NONE USED, Dose [Inhibitor]: 0, 0.005% IN DRINKING WATER AD LIBITUM FOR 40 WK (STUDY DURATION: 40 WK), Route [Inhibitor]: ORAL, Species: MOUSE, Strain/Sex: C3H/HE/MALE, Target Tissue: Type of Lesion: LIVER: TUMOR): 100%, 100%, 0%, not significant
tumour outcome (control, treated, inhibition, significance) (Carcinogen: NONE USED, Dose [Inhibitor]: 0, 0.005% IN DRINKING WATER FOR 40 WK (STUDY DURATION: 40 WK), Route [Inhibitor]: ORAL, Species: MOUSE, Strain/Sex: C3H/HE/MALE, Target Tissue: Type of Lesion: LIVER: TUMORS): 16/16 (100%), 16/16 (100%), 0%, not significant
tumour outcome (control, treated, inhibition, significance) (Carcinogen: NONE USED, Dose [Inhibitor]: 0, 0.05% IN DRINKING WATER AD LIBITUM FOR 40 WK (STUDY DURATION: 40 WK), Route [Inhibitor]: ORAL, Species: MOUSE, Strain/Sex: C3H/HE/MALE, Target Tissue: Type of Lesion: LIVER: TUMOR): 100%, 100%, 0%, not significant
tumour outcome (control, treated, inhibition, significance) (Carcinogen: NONE USED, Dose [Inhibitor]: 0, 0.05% IN DRINKING WATER FOR 40 WK (STUDY DURATION: 40 WK), Route [Inhibitor]: ORAL, Species: MOUSE, Strain/Sex: C3H/HE/MALE, Target Tissue: Type of Lesion: LIVER: TUMORS): 16/16 (100%), 17/17 (100%), 0%, not significant
tumour outcome (control, treated, inhibition, significance) (Carcinogen: NONE USED, Dose [Inhibitor]: 0, 2.5 MG/D IN DRINKING WATER FROM 8 MO OF AGE (STUDY DURATION: 15 MO), Route [Inhibitor]: ORAL, Species: MOUSE, Strain/Sex: C3H/FEMALE, Target Tissue: Type of Lesion: MAMMARY GLAND: TUMOR): 12/20 (60%), 4/19 (21%), 65%, not calculated
tumour outcome (control, treated, inhibition, significance) (Carcinogen: UV-B IRRADIATION (HANOVIA QUARTZ CONTACT LAMP IN 290-320 NM RANGE), Dose [Inhibitor]: 0.4 ML OF BEADLET SOLUTION CONTAINING 0.1 G/4 ML 3/WK FOR 1 MO FOLLOWED BY 0.2 ML OF BEADLET SOLUTION CONTAINING 0.1 G/4, Route [Inhibitor]: INTRAPERITONEAL, Species: MOUSE, Strain/Sex: ALBINO, Target Tissue: Type of Lesion: SKIN: SQUAMOUS CELL CARCINOMA, Dose [Carcinogen]: 6.5 KJ/SQ M 3/WK FOR 15 MO BEGINNING 1 MO POST AGENT DOSE): 14/21 (67%), 6/20 (25%), 63%, p=0.0189 and 14/21 (67%), 5/18 (28%), 58%, p=0.0154
tumour outcome (control, treated, inhibition, significance) (Carcinogen: UV-B IRRADIATION (WESTINGHOUSE FS-20 SUNLAMP 55% IN 290-320 NM RANGE), Dose [Inhibitor]: 3.3 G/100 G OF PELLETIZED FEED BEGINNING 10 WK PRIOR TO CARCINOGEN DOSE TO 24 WK POST CARCINOGEN DOSE (STUDY DURATION: 3, Route [Inhibitor]: ORAL, Species: MOUSE, Strain/Sex: SKH, Target Tissue: Type of Lesion: SKIN: TUMOR, Dose [Carcinogen]: 80 KJ/SQ M TOTAL ENERGY DURING A 220 MINUTE SINGLE EXPOSURE): 4/9 (44%), 2/7 (29%), 34%, not significant
tumour outcome (control, treated, inhibition, significance) (Carcinogen: UVB IRRADIATION, Dose [Inhibitor]: 0, 1% IN DIET FOR DURATION OF STUDY BEGINNING 3 WK PRIOR TO IRRADIATION (STUDY DURATION: 33 WK), Route [Inhibitor]: ORAL, Species: MOUSE, Strain/Sex: C3H/HEN/FEMALE, Target Tissue: Type of Lesion: SKIN: TUMOR, Dose [Carcinogen]: 6 J/M2/SEC 30 MIN/D, 5 D/WK FOR 27 WK): 81%, 67%, 17%, not significant
